Results taken from PubChem BioAssay (NCI).
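Exposure lasted 48 hours, with cells grown in 96-well plates and compounds tested at five concentrations. Abbreviation: GI50, concentration required for 50% inhibition of growth. TGI denotes the concentration required for complete inhibition of growth.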

Key:
Assay in all cases: growth of human tumour cells (NCI), 48 h
HL-60(TB) leukemia = test system: HL-60(TB) leukemia
SK-MEL-5 melanoma = test system: SK-MEL-5 melanoma
COLO 205 colon = test system: COLO 205 colon
NCI/ADR-RES ovarian = test system: NCI/ADR-RES ovarian
HOP-92 NSCLC = test system: HOP-92 NSCLC
RXF 393 renal = test system: RXF 393 renal
SF-539 CNS = test system: SF-539 CNS
MOLT-4 leukemia = test system: MOLT-4 leukemia

| SMILES | GI50 (HL-60(TB) leukemia) | TGI (HL-60(TB) leukemia) | GI50 (SK-MEL-5 melanoma) | TGI (SK-MEL-5 melanoma) | GI50 (COLO 205 colon) | TGI (COLO 205 colon) | GI50 (NCI/ADR-RES ovarian) | TGI (NCI/ADR-RES ovarian) | GI50 (HOP-92 NSCLC) | TGI (HOP-92 NSCLC) | GI50 (RXF 393 renal) | TGI (RXF 393 renal) | GI50 (SF-539 CNS) | TGI (SF-539 CNS) | GI50 (MOLT-4 leukemia) | TGI (MOLT-4 leukemia) |
| --- | --- | --- | --- | --- | --- | --- | --- | --- | --- | --- | --- | --- | --- | --- | --- | --- |
| Nc1cc(C(F)F)c(-c2nc(N3[C@@H]4CC[C@H]3COC4)nc(N3[C@@H]4CC[C@H]3COC4)n2)cn1 | 2290 nM | > 100000 nM | 407 nM | 4480 nM | 329 nM | 14500 nM | 603 nM | 39500 nM | 68.8 nM | 722 nM | 180 nM | 816 nM | 297 nM | 3020 nM | 796 nM | > 100000 nM |
| Cc1cc(NC(=O)CCc2ccc(N3C(N)=NC(N)=NC3(C)C)cc2)ccc1S(=O)(=O)F | 3450 nM | > 100000 nM | 125 nM | 19100 nM | 358 nM | > 100000 nM | > 100000 nM | > 100000 nM | > 39000 nM | > 100000 nM | 1350 nM | > 100000 nM | 1000 nM | 26400 nM | 1270 nM | > 100000 nM |
| CC(=O)N1c2ccccc2C23CCN4CC5=CCOC(O)C(C5CC42)C13 (centres undefined) |  | > 100000 nM |  | > 100000 nM |  | > 100000 nM |  | > 100000 nM |  | > 100000 nM |  |  |  | > 100000 nM |  | > 100000 nM |
| COc1ccc(OC)c(-c2nc3sccn3c2/C=C2/C(=O)Nc3ccccc32)c1 | 52.4 nM | 26500 nM |  | 997 nM | 595 nM |  | 1420 nM | 7760 nM | 822 nM | 19100 nM | 553 nM | 17900 nM |  |  | 47.2 nM | 18400 nM |
| COC(=O)c1c2c(c(C)[n+]([O-])c1C)C(=O)C(NCc1ccc(F)c(Cl)c1)=CC2=O | 1390 nM | 5680 nM | 426 nM | 1570 nM | 588 nM | 2290 nM | 2080 nM | 6920 nM | 2520 nM | 5790 nM | 1730 nM | 4050 nM | 1690 nM | 3320 nM | 2420 nM | 7200 nM |
| C#C[C@]1(O)CC[C@H]2[C@@H]3CC=C4c5nc(Nc6ccc(OC)cc6OC)sc5CC[C@]4(C)[C@H]3CC[C@@]21C | 1420 nM | 5910 nM | 1730 nM | 3260 nM | 2140 nM | 4780 nM | 2360 nM | 17000 nM | 2100 nM | 7000 nM | 262 nM | 608 nM | 374 nM | 1700 nM | 460 nM | 4690 nM |
| COCCOC(C)C(/C=N/NC(N)=S)=N/NC(N)=S (centres undefined) |  | > 58900 nM | > 100000 nM | > 100000 nM | > 100000 nM | > 100000 nM | 73.2 nM | > 100000 nM | > 100000 nM | > 100000 nM | > 100000 nM | > 100000 nM | > 100000 nM | > 100000 nM | 55.8 nM | > 100000 nM |
| COc1cc(/C=C2\C(=O)N(c3c(Cl)cccc3Cl)c3ccccc32)cc(OC)c1O | 1010 nM | 8740 nM | 375 nM | 6260 nM | 5940 nM | 18700 nM | 793 nM | 13500 nM | 1970 nM | 11000 nM | 1860 nM | 11600 nM | 531 nM | 17300 nM | 455 nM | 20400 nM |
